The text below walks through data of patent publication US20120045393A1 (priority 2009, published 2012).

Each structure is given as a SMILES string. Non-standard residues stand in square brackets, D forms with d. Residues, ends and D or L forms follow the SMILES beside them. *: point of attachment. DOTA = O=C(O)CN1CCN(CC(=O)O)CCN(CC(=O)*)CCN(CC(=O)O)CC1; Bpa = N[C@@H](Cc1ccc(C(=O)c2ccccc2)cc1)C(=O)O; Ala(4-thiazolyl) = N[C@@H](Cc1cscn1)C(=O)O; d2Nal = N[C@H](Cc1ccc2ccccc2c1)C(=O)O; Nicotinoyl = O=C(c1cccnc1)*; azaGly = NNC(=O)O; Sar = CNCC(=O)O
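Also: Cell-associated radioactivity on confluent EFO-27 monolayers in 96-well plates, measured by microplate scintillation counting.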

One experiment deals with LHRH binding sites on human ovarian cancer cells (EFO-27).
Conditions: not given
With `N=C(N)NCCC[C@H](NC(=O)[C@@H](Cc1ccc2ccccc2c1)NC(=O)CN1CCN(CC(=O)O)CCN(CC(=O)O)CCN(CC(=O)O)CC1)C(=O)N[C@@H](Cc1c[nH]c2ccccc12)C(=O)N[C@@H](CO)C(=O)N[C@@H](Cc1c[nH]cn1)C(=O)N[C@H](CCCNC(=N)N)C(=O)N[C@@H](Cc1c[nH]c2ccccc12)C(=O)N[C@@H](Cc1ccc(C(=O)c2ccccc2)cc1)C(=O)N1CCC[C@H]1C(=O)Nc1ccccc1` [compound 3006], the EC50 (as a rule, the midpoint of the concentration-response curve) came out at 420 nM. Regarding `CSCC[C@H](NC(=O)[C@H](Cc1c[nH]c2ccccc12)NC(=O)[C@H](CCCNC(=N)N)NC(=O)[C@@H](Cc1ccc2ccccc2c1)NC(=O)CN1CCN(CC(=O)O)CCN(CC(=O)O)CCN(CC(=O)O)CC1)C(=O)N[C@@H](Cc1c[nH]cn1)C(=O)N[C@H](CCCNC(=N)N)C(=O)N[C@@H](Cc1c[nH]c2ccccc12)C(=O)N[C@@H](Cc1ccc(C(=O)c2ccccc2)cc1)C(=O)N1CCC[C@H]1C(=O)NNC(N)=O` [BRU-2964] ({DOTA}-[d2Nal]RWMH[dR]W[Bpa]P[azaGly]-NH2), a half-maximal effect (EC50) was put at 220 nM. Regarding `CN(CC(=O)N[C@@H](Cc1c[nH]cn1)C(=O)N[C@@H](Cc1c[nH]c2ccccc12)C(=O)N[C@@H](CO)C(=O)N[C@@H](Cc1c[nH]cn1)C(=O)N[C@H](CCCNC(=N)N)C(=O)N[C@@H](Cc1c[nH]c2ccccc12)C(=O)N[C@@H](Cc1ccc(C(=O)c2ccccc2)cc1)C(=O)N1CCC[C@H]1C(=O)NNC(N)=O)C(=O)c1ccc(CNC(=O)CN2CCN(CC(=O)O)CCN(CC(=O)O)CCN(CC(=O)O)CC2)cc1` [compound 2727], the half-maximal effective concentration (EC50) was determined as 650 nM. In turn, `CN(CC(=O)N[C@@H](Cc1c[nH]cn1)C(=O)N[C@@H](Cc1c[nH]c2ccccc12)C(=O)N[C@@H](CO)C(=O)N[C@@H](Cc1c[nH]cn1)C(=O)N[C@H](CCCCNC(=O)c1cccnc1)C(=O)N[C@@H](Cc1c[nH]c2ccccc12)C(=O)N[C@@H](Cc1ccc(O)cc1)C(=O)N1CCC[C@H]1C(=O)NNC(N)=O)C(=O)CN1CCN(CC(=O)O)CCN(CC(=O)O)CCN(CC(=O)O)CC1` [compound 2674] ({DOTA}-[Sar]HWSH[dK](Nicotinoyl)WYP[azaGly]-NH2) yielded a half-maximal effective concentration (EC50) of 22600 nM. In turn, `CN(CC(=O)N[C@@H](Cc1c[nH]cn1)C(=O)N[C@@H](Cc1c[nH]c2ccccc12)C(=O)N[C@@H](CO)C(=O)N[C@@H](Cc1c[nH]cn1)C(=O)N[C@H](CCCNC(=N)N)C(=O)N[C@@H](Cc1c[nH]c2ccccc12)C(=O)N[C@@H](Cc1c(F)c(F)c(F)c(F)c1F)C(=O)N1CCC[C@H]1C(=O)NNC(N)=O)C(=O)CN1CCN(CC(=O)O)CCN(CC(=O)O)CCN(CC(=O)O)CC1` [BRU-2722] registered an EC50 of 4620 nM.

`CN(CC(=O)N[C@@H](Cc1c[nH]cn1)C(=O)N[C@@H](Cc1c[nH]c2ccccc12)C(=O)N[C@@H](CO)C(=O)N[C@@H](Cc1c[nH]cn1)C(=O)N[C@H](CCCNC(=N)N)C(=O)N[C@@H](Cc1c[nH]c2ccccc12)C(=O)N[C@@H](CCCNC(=N)N)C(=O)N1CCC[C@H]1C(=O)NNC(N)=O)C(=O)CN1CCN(CC(=O)O)CCN(CC(=O)O)CCN(CC(=O)O)CC1` [BRU-2723] (HELM PEPTIDE1{[O=C(O)CN1CCN(CC(=O)O)CCN(CC(=O)[*:2])CCN(CC(=O)O)CC1].[Sar].H.W.S.H.[dR].W.R.P.[O=C(NN[*:1])[*:2]].[am]}$$$$V2.0) had a 50% effective concentration (EC50) of 2830 nM. Same read-out and setting: under `CN(CC(=O)N[C@@H](Cc1c[nH]cn1)C(=O)N[C@@H](Cc1c[nH]c2ccccc12)C(=O)N[C@@H](CO)C(=O)N[C@@H](Cc1cscn1)C(=O)N[C@H](CCCNC(=N)N)C(=O)N[C@@H](Cc1c[nH]c2ccccc12)C(=O)N[C@@H](Cc1ccc(C(=O)c2ccccc2)cc1)C(=O)N1CCC[C@H]1C(=O)NNC(N)=O)C(=O)CN1CCN(CC(=O)O)CCN(CC(=O)O)CCN(CC(=O)O)CC1` [BRU-2769] ({DOTA}-[Sar]HWS[Ala(4-thiazolyl)][dR]W[Bpa]P[azaGly]-NH2; C-terminus assumed) stands 7340 nM. As for `N=C(N)NCCC[C@H](NC(=O)[C@@H](Cc1ccc2ccccc2c1)NC(=O)CN1CCN(CC(=O)O)CCN(CC(=O)O)CCN(CC(=O)O)CC1)C(=O)N[C@@H](Cc1c[nH]c2ccccc12)C(=O)N[C@@H](CO)C(=O)N[C@@H](Cc1c[nH]cn1)C(=O)N[C@H](CCCNC(=N)N)C(=O)N[C@@H](Cc1c[nH]c2ccccc12)C(=O)N[C@@H](Cc1ccc(C(=O)c2ccccc2)cc1)C(=O)N1CCC[C@H]1C(=O)NCCO` [compound 2970], the concentration for a half-maximal effect (EC50) was determined as 510 nM. On the same count and under the same terms, under `CNCC(=O)N[C@@H](CCCNC(=N)N)C(=O)N[C@@H](Cc1c[nH]c2ccccc12)C(=O)N[C@@H](CO)C(=O)N[C@@H](Cc1c[nH]cn1)C(=O)N[C@H](CCCNC(=N)N)C(=O)N[C@@H](Cc1c[nH]c2ccccc12)C(=O)N[C@@H](Cc1ccc(C(=O)c2ccccc2)cc1)C(=O)N1CCC[C@H]1C(=O)NCCCN1CCN(CCCNC(=O)CN2CCN(CC(=O)O)CCN(CC(=O)O)CCN(CC(=O)O)CC2)CC1` [compound 3044] stands 240 ± 80 nM. Same read-out and setting: under `N=C(N)NCCC[C@H](NC(=O)[C@@H](Cc1ccc2ccccc2c1)NC(=O)CN1CCN(CC(=O)O)CCN(CC(=O)O)CCN(CC(=O)O)CC1)C(=O)N[C@@H](Cc1c[nH]c2ccccc12)C(=O)N[C@@H](Cc1ccncc1)C(=O)N[C@@H](Cc1c[nH]cn1)C(=O)N[C@H](CCCNC(=N)N)C(=O)N[C@@H](Cc1c[nH]c2ccccc12)C(=O)N[C@@H](Cc1ccc(C(=O)c2ccccc2)cc1)C(=O)N1CCC[C@H]1C(=O)NNC(N)=O` [compound 2957] stands 840 nM. `CN(CC(=O)N[C@@H](Cc1c[nH]cn1)C(=O)N[C@@H](Cc1c[nH]c2ccccc12)C(=O)N[C@@H](CO)C(=O)N[C@@H](Cc1c[nH]cn1)C(=O)N[C@H](CCCNC(=N)N)C(=O)N[C@@H](Cc1c[nH]c2ccccc12)C(=O)N[C@@H](Cc1ccc2ccccc2c1)C(=O)N1CCC[C@H]1C(=O)NNC(N)=O)C(=O)CN1CCN(CC(=O)O)CCN(CC(=O)O)CCN(CC(=O)O)CC1` [BRU-2624] showed a half-maximal effective concentration (EC50) of 2010 nM. The same measure, in the same setting: next, `N=C(N)NCCC[C@H](NC(=O)[C@H](Cc1ccc(C(=O)O)cc1)NC(=O)CN1CCN(CC(=O)O)CCN(CC(=O)O)CCN(CC(=O)O)CC1)C(=O)N[C@@H](Cc1c[nH]c2ccccc12)C(=O)N[C@@H](CO)C(=O)N[C@@H](Cc1c[nH]cn1)C(=O)N[C@H](CCCNC(=N)N)C(=O)N[C@@H](Cc1c[nH]c2ccccc12)C(=O)N[C@@H](Cc1ccc(C(=O)c2ccccc2)cc1)C(=O)N1CCC[C@H]1C(=O)NNC(N)=O` [BRU-3092]: 2000 nM.

The same experiment, now with this note: BRU-2441 vs BRU-2439; BRU-2666 vs Sar1 analog; BRU-3072 vs Pro9 analog.
With `CNCC(=O)N[C@@H](Cc1c[nH]cn1)C(=O)N[C@@H](Cc1c[nH]c2ccccc12)C(=O)N[C@@H](CO)C(=O)N[C@@H](Cc1cnc[nH]1)C(=O)N[C@H](CCCNC(=N)N)C(=O)N[C@@H](Cc1c[nH]c2ccccc12)C(=O)N[C@@H](Cc1ccc(C(=O)c2ccccc2)cc1)C(=O)N1CCC[C@H]1C(=O)NNC(N)=O` [BRU-2441, Sar-His-Trp-Ser-His-Darg-Trp-Bpa-Pro-azaGly-NH2], the “times more potent than the comparator analog” value was approximately 2.

The same experiment, now with this note: BRU-2813 vs BRU-2666; BRU-2964 vs BRU-2813.
As to `CSCC[C@H](NC(=O)[C@H](Cc1c[nH]c2ccccc12)NC(=O)[C@H](CCCNC(=N)N)NC(=O)[C@@H](Cc1ccc2ccccc2c1)NC(=O)CN1CCN(CC(=O)O)CCN(CC(=O)O)CCN(CC(=O)O)CC1)C(=O)N[C@@H](Cc1c[nH]cn1)C(=O)N[C@H](CCCNC(=N)N)C(=O)N[C@@H](Cc1c[nH]c2ccccc12)C(=O)N[C@@H](Cc1ccc(C(=O)c2ccccc2)cc1)C(=O)N1CCC[C@H]1C(=O)NNC(N)=O` [BRU-2964] ({DOTA}-[d2Nal]RWMH[dR]W[Bpa]P[azaGly]-NH2), the “more potency than the comparator analog” value is on record as 30%.

The experiment is the same for the next values; noted with them: EFO-27 cells, competition with [125I-Tyr8]BRU-2477, 90 min.
`N=C(N)NCCC[C@H](NC(=O)[C@@H](Cc1ccc2ccccc2c1)NC(=O)CN1CCN(CC(=O)O)CCN(CC(=O)O)CCN(CC(=O)O)CC1)C(=O)N[C@@H](Cc1c[nH]c2ccccc12)C(=O)N[C@@H](CO)C(=O)N[C@@H](Cc1c[nH]cn1)C(=O)N[C@H](CCCNC(=N)N)C(=O)N[C@@H](Cc1c[nH]c2ccccc12)C(=O)N[C@@H](Cc1ccc(C(=O)c2ccccc2)cc1)C(=O)N1CCC[C@H]1C(=O)NCC(=O)NCCCCO` [compound 2986]: the response was half-maximal at 1660 nM (EC50). Same read-out and setting: next, `N=C(N)NCCC[C@H](NC(=O)[C@@H](Cc1ccc2ccccc2c1)NC(=O)CN1CCN(CC(=O)O)CCN(CC(=O)O)CCN(CC(=O)O)CC1)C(=O)N[C@@H](Cc1c[nH]c2ccccc12)C(=O)N[C@@H](CO)C(=O)N[C@@H](Cc1c[nH]cn1)C(=O)N[C@H](CCCNC(=N)N)C(=O)N[C@@H](Cc1c[nH]c2ccccc12)C(=O)N[C@@H](Cc1ccc(C(=O)c2ccccc2)cc1)C(=O)N1CCC[C@H]1C(=O)NCC(=O)NCc1ccccc1` [compound 2988]: 650 nM; `CN(CC(=O)N[C@@H](Cc1c[nH]cn1)C(=O)N[C@@H](Cc1c[nH]c2ccccc12)C(=O)N[C@@H](CO)C(=O)N[C@@H](Cc1ccc(O)cc1)C(=O)N[C@H](CCCNC(=N)N)C(=O)N[C@@H](Cc1c[nH]c2ccccc12)C(=O)N[C@@H](Cc1ccc(C(=O)c2ccccc2)cc1)C(=O)N1CCC[C@H]1C(=O)NNC(N)=O)C(=O)CN1CCN(CC(=O)O)CCN(CC(=O)O)CCN(CC(=O)O)CC1` [BRU-2668] ({DOTA}-[Sar]HWSY[dR]W[Bpa]P[azaGly]-NH2; C-terminus assumed): 3470 nM.

Staying with this experiment, now noted: Table 5: modifications of amino acids at positions 1 and 2; in vitro binding on EFO-27 cells.
Compound `N=C(N)NCCC[C@@H](NC(=O)[C@H](Cc1c[nH]cn1)NC(=O)[C@H](CO)NC(=O)[C@H](Cc1c[nH]c2ccccc12)NC(=O)[C@H](Cc1c[nH]cn1)NC(=O)[C@@H](Cc1ccc(O)cc1)NC(=O)CN1CCN(CC(=O)O)CCN(CC(=O)O)CCN(CC(=O)O)CC1)C(=O)N[C@@H](Cc1c[nH]c2ccccc12)C(=O)N[C@@H](Cc1ccc(C(=O)c2ccccc2)cc1)C(=O)N1CCC[C@H]1C(=O)NNC(N)=O` [BRU-2870] ({DOTA}-[dY]HWSH[dR]W[Bpa]P[azaGly]-NH2) registered a 50% effective concentration (EC50) of 10000 nM. `CCN(CC(=O)N[C@@H](Cc1c[nH]cn1)C(=O)N[C@@H](Cc1c[nH]c2ccccc12)C(=O)N[C@@H](CO)C(=O)N[C@@H](Cc1c[nH]cn1)C(=O)N[C@H](CCCNC(=N)N)C(=O)N[C@@H](Cc1c[nH]c2ccccc12)C(=O)N[C@@H](Cc1ccc(C(=O)c2ccccc2)cc1)C(=O)N1CCC[C@H]1C(=O)NNC(N)=O)C(=O)CN1CCN(CC(=O)O)CCN(CC(=O)O)CCN(CC(=O)O)CC1` [BRU-2788] came in with a concentration for a half-maximal effect (EC50) of 210 nM. Same read-out and setting: next, `CN(CC(=O)N[C@@H](Cc1cn(C)cn1)C(=O)N[C@@H](Cc1c[nH]c2ccccc12)C(=O)N[C@@H](CO)C(=O)N[C@@H](Cc1c[nH]cn1)C(=O)N[C@H](CCCNC(=N)N)C(=O)N[C@@H](Cc1c[nH]c2ccccc12)C(=O)N[C@@H](Cc1ccc(C(=O)c2ccccc2)cc1)C(=O)N1CCC[C@H]1C(=O)NNC(N)=O)C(=O)CN1CCN(CC(=O)O)CCN(CC(=O)O)CCN(CC(=O)O)CC1` [BRU-2741]: 2990 nM.
